Experimental data as given in patent publication US6855669B2, “Use of α,β unsaturated aliphatic aldehydes and ketones to inhibit potato tuber sprouting” (Washington State University Research Foundation, priority 2000, dated 2005).

How the values were obtained:
Assay type in all cases: in vivo, Solanum tuberosum
[1] = test system: Russet Burbank and Ranger Russet seed-tubers; assay: Example 5: sprout inhibition by C5 to C9 trans-2 aldehydes over prolonged storage (17 weeks); settings: 0.5, 0.75 and 1.0 mmol/kg tuber, 24 hours, 17 weeks at 8° C.; for inhibition of sprout development (in words): 95% RH
Protocol: (46° F.), 95% relative humidity (RH), for 17 weeks. As described more fully in Example 5, four-month-old tubers (previously stored at 4° C.) were treated (for 24 h) with different concentrations of the aldehydes in mid January. The treated tubers were then stored in the dark for 120 days (17 weeks).
Methods: Four-month-old Russet Burbank and Ranger Russet seed-tubers were taken from a 4° C. storage area and treated (Jan. 10, 2001) separately with 0, 0.5, 0.75 and 1.0 mmol/kg tuber of trans-2-pentenal, trans-2-hexenal, trans-2-heptenal, trans-2-octenal, and trans-2-nonenal in 3.9 L glass jars. The volume of inhibitor required to achieve the above rates was pipetted onto filter paper discs inside the lids of each jar. The concentration of inhibitors in the headspace of the jars was equal at 0.16 mmol/L. The tubers were enclosed in the jars and thus exposed to inhibitor vapor for 24 hours at 23° C. Control tubers were enclosed in a glass jar without any aldehyde. Following treatment, tubers were removed from the jars and placed at 8° C. (46° F.) (95% relative humidity) in the dark to sprout for 120 days (17 weeks). The experiment was set up in a randomized complete block design (5 replicates) with chemicals and concentrations arranged factorially. Effects of the aliphatic aldehydes on the development of etiolated sprouts were documented photographically and quantitatively (sprout number and fresh weight) after 120 days of storage.

[2] = test system: Russet Burbank seed tubers; assay: Example 4: sprout inhibition by aldehyde vapors, 26 days of sprouting; settings: 12 hours vapor, 26 days at 18° C.
Protocol: Methods: Eleven-month-old Russet Burbank seed tubers were taken from a 4° C. storage area and exposed to trans-2-hexenal (0.6-4.3 mmol/kg), trans-2-heptenal (0.6-3.8 mmol/kg) and trans-2-octenal (0.5-2.5 mmol/kg) vapors separately in 3.9 L glass containers for 12 hours at 23° C. The aldehydes were applied to filter paper inside petri dishes within each jar. Control tubers were enclosed in a glass container without any aldehyde. Sprouts were ‘peeping’ (approximately 3 mm in length) at the time of treatment. Following treatment, tubers were placed at 18° C. (95% relative humidity) in the dark to sprout for 26 days. The experiment was set up in a randomized complete block design (5 replicates) with chemicals and concentrations arranged factorially. Effects of the aliphatic aldehydes on the development of etiolated sprouts were documented at 20 days (photographically) and 26 days of sprouting.

[3] = test system: Russet Burbank tubers; assay: Example 6: reconditioning, sprout fresh weight and fry color; settings: 0.45 mmol/kg
Protocol: Seven-month-old tubers from 4° C. (40° F.) storage were treated with 0.45 mmol/kg trans-2-nonenal for 17 hours at 23° C. The tubers were then placed at 14° C. (57° F.) to recondition. French fries were processed from the tubers through four weeks of reconditioning. Fry color (lightness or darkness) was quantified with a photovolt reflectance meter. High photovolt values indicate light-colored fries (high processing quality). Low photovolt values indicate low-quality, dark-colored fries.
Methods: Russet Burbank tubers were stored at 7° C. (44° F.) from harvest Oct. 29, 2000 to Jan. 26, 2001. The tubers were transferred to 4° C. (40° F.) on Jan. 26, 2001, until treatment on Apr. 2, 2001. Tubers were treated with 0.45 mmol/kg trans-2-nonenal in 9.2 L glass desiccators for 17 hours at 23° C. Following treatment, the tubers were placed at 14° C. (57° F.) to recondition for 0, 1, 2, 3 and 4 weeks. […] Fry darkness of the apical and basal ends of the fries was quantified with a photovolt reflectance meter within three minutes of frying. A high reflectance reading (photovolt unit) indicates light fry color due to a relatively low sugar level and thus a high-quality processed product. Conversely, a low reflectance reading indicates dark fry color due to high sugar content, resulting in low processing quality. […] Sprout fresh weight and fry color were recorded.

## CCCCC/C=C/C=O [trans-2-octenal]
[1]
  external pitting damage to the periderm (in words): did not induce external pitting damage
  inhibition of sprout development (in words): totally inhibited sprout development
[2]; 0.50 mmol/kg
  Average Sprout Length: 0 cm/tuber
  Sprout Fresh Weight: 0 g/tuber
[2]; 0.97 mmol/kg
  Average Sprout Length: 0 cm/tuber
  Sprout Fresh Weight: 0 g/tuber
[2]; 1.44 mmol/kg
  Average Sprout Length: 0 cm/tuber
  Sprout Fresh Weight: 0 g/tuber
[2]; 1.93 mmol/kg
  Average Sprout Length: 0.2 cm/tuber
  Sprout Fresh Weight: 0.10 g/tuber
[2]; 2.48 mmol/kg
  Average Sprout Length: 0.2 cm/tuber
  Sprout Fresh Weight: 0.13 g/tuber

## CCCC/C=C/C=O [trans-2-heptenal]
[1]
  inhibition of sprout development (in words): inhibited sprouting in a concentration-dependent manner
[2]; 0.56 mmol/kg
  Average Sprout Length: 0.2 cm/tuber
  Sprout Fresh Weight: 0.01 g/tuber
[2]; 1.11 mmol/kg
  Average Sprout Length: 0 cm/tuber
  Sprout Fresh Weight: 0 g/tuber
[2]; 1.69 mmol/kg
  Average Sprout Length: 0 cm/tuber
  Sprout Fresh Weight: 0 g/tuber
[2]; 2.16 mmol/kg
  Average Sprout Length: 0 cm/tuber
  Sprout Fresh Weight: 0 g/tuber
[2]; 3.85 mmol/kg
  Average Sprout Length: 0 cm/tuber
  Sprout Fresh Weight: 0 g/tuber

## CCCCCC/C=C/C=O [trans-2-nonenal]
[3]; 17 hours at 23° C., four weeks of reconditioning at 57° F.
  sprouts produced (fresh weight): 13.5 g fresh weight/12 tubers
[3]; from 2 to 4 weeks of reconditioning at 57° F.
  processing quality (fry color, photovolt reflectance) (in words): continued to increase
[1]
  external pitting damage to the periderm (in words): did not induce external pitting damage
  inhibition of sprout development (in words): totally inhibited sprout development

## CC/C=C/C=O [trans-2-pentenal]
[1]
  inhibition of sprout development (in words): inhibited sprouting in a concentration-dependent manner
